Data published in PubChem BioAssay (NCI).
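A five-concentration, 48-hour dose response in 96-well plates underlies each endpoint, interpolated linearly between surrounding concentrations. The concentration for 50% growth inhibition is given as GI50. TGI marks complete inhibition of growth.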

What was measured:
Test in all cases: DTP human tumour cell line panel, 48 h
[1] = system: 786-0 renal
[2] = system: A498 renal
[3] = system: A549 NSCLC
[4] = system: ACHN renal
[5] = system: BT-549 breast
[6] = system: CAKI-1 renal
[7] = system: CCRF-CEM leukemia
[8] = system: COLO 205 colon
[9] = system: DU-145 prostate
[10] = system: EKVX NSCLC
[11] = system: HCT-116 colon
[12] = system: HCT-15 colon
[13] = system: HOP-62 NSCLC
[14] = system: HOP-92 NSCLC
[15] = system: HS 578T breast
[16] = system: HT29 colon
[17] = system: IGROV1 ovarian
[18] = system: K-562 leukemia
[19] = system: KM12 colon
[20] = system: LOX IMVI melanoma
[21] = system: M14 melanoma
[22] = system: MALME-3M melanoma
[23] = system: MCF7 breast
[24] = system: MDA-MB-231 breast
[25] = system: MDA-MB-435
[26] = system: MOLT-4 leukemia
[27] = system: NCI-H226 lung
[28] = system: NCI-H23 lung
[29] = system: NCI-H460 lung
[30] = system: NCI-H522 lung
[31] = system: NCI/ADR-RES ovarian
[32] = system: OVCAR-3 ovarian
[33] = system: OVCAR-4 ovarian
[34] = system: OVCAR-5 ovarian
[35] = system: OVCAR-8 ovarian
[36] = system: PC-3 prostate
[37] = system: RPMI-8226 leukemia
[38] = system: RXF 393 renal
[39] = system: SF-268 CNS
[40] = system: SF-295 CNS
[41] = system: SF-539 CNS
[42] = system: SK-MEL-2 melanoma
[43] = system: SK-MEL-28 melanoma
[44] = system: SK-MEL-5 melanoma
[45] = system: SK-OV-3 ovarian
[46] = system: SN12C renal
[47] = system: SNB-19 CNS
[48] = system: SNB-75 CNS
[49] = system: SR leukemia
[50] = system: SW-620 colon
[51] = system: T-47D breast
[52] = system: TK-10 renal
[53] = system: U251 CNS
[54] = system: UACC-257 melanoma
[55] = system: UACC-62 melanoma
[56] = system: UO-31 renal
[57] = system: HCC-2998 colon
[58] = system: HL-60(TB) leukemia

In the case of `Oc1ccc(N=Cc2ccc(C=Nc3ccc(O)cc3)cc2)cc1`, the TGI [1] is reported as 31.4 µM, the TGI [2] is reported as 94.2 µM and the TGI [3] is reported as 38.4 µM. It also gave a TGI [4] of 26 µM, a TGI [5] of 33.8 µM and a TGI [6] of 35.1 µM. For the same compound, the TGI [7] was 30.7 µM, the TGI [8] was 39.2 µM and the TGI [9] was 32.4 µM. For the same compound, the TGI [10] was 83.6 µM, the TGI [11] was 36.8 µM and the TGI [12] was 29.1 µM. The TGI [13] was 37.1 µM, the TGI [14] was 62.7 µM and the TGI [15] was 60.1 µM. The TGI [16] was 89.4 µM, the TGI [17] was 39 µM and the TGI [18] was 40.4 µM. The TGI [19] was 33.3 µM, the TGI [20] was 41.4 µM and the TGI [21] was 34.5 µM. For the same compound, the TGI [22] was 34.4 µM, the TGI [23] was over 100 µM and the TGI [24] was 27.7 µM. It also gave a TGI [25] of 32.7 µM, a TGI [26] of 20 µM and a TGI [27] of 29.5 µM. For the same compound, the TGI [28] was 34.8 µM, the TGI [29] was 72.7 µM and the TGI [30] was 59.9 µM. For the same compound, the TGI [31] was 34.2 µM, the TGI [32] was 32.6 µM and the TGI [33] was 29.6 µM. For the same compound, the TGI [34] was 38.7 µM, the TGI [35] was 29.3 µM and the TGI [36] was 33 µM. The TGI [37] was 81.6 µM, the TGI [38] was 34.9 µM and the TGI [39] was 30.8 µM. The TGI [40] was 32.3 µM, the TGI [41] was 28.6 µM and the TGI [42] was 49.9 µM. The TGI [43] was 37.3 µM, the TGI [44] was 29.8 µM and the TGI [45] was 32.4 µM. The TGI [46] was 28.5 µM, the TGI [47] was 31.6 µM and the TGI [48] was 41.5 µM. For the same compound, the TGI [49] was 25.9 µM, the TGI [50] was 45.8 µM and the TGI [51] was over 100 µM. It also gave a TGI [52] of 34 µM, a TGI [53] of 27.6 µM and a TGI [54] of 32.4 µM. For the same compound, the TGI [55] was 25.5 µM and the TGI [56] was 34 µM.

In the case of `Cc1cc(Nc2cccc(F)c2)nc(NCc2ccccc2)n1`, the GI50 [1] is reported as 6.62 µM, the TGI [1] is reported as 22.1 µM and the GI50 [2] is reported as 2.75 µM. The TGI [2] was 10.7 µM, the GI50 [3] was 6.44 µM and the TGI [3] was 22.8 µM. It also gave a GI50 [4] of 7.76 µM, a TGI [4] of 26.1 µM and a GI50 [5] of 7.45 µM. The TGI [5] was 23.2 µM, the GI50 [6] was 3.94 µM and the TGI [6] was 17.8 µM. It also gave a GI50 [7] of 4.75 µM, a TGI [7] of 22.1 µM and a GI50 [8] of 1.73 µM. The TGI [8] was 3.31 µM, the GI50 [9] was 11.3 µM and the TGI [9] was 23.9 µM. For the same compound, the GI50 [57] was 2 µM, the TGI [57] was 4.19 µM and the GI50 [11] was 3.34 µM. For the same compound, the TGI [11] was 18.2 µM, the GI50 [12] was 4.98 µM and the TGI [12] was 24.6 µM. For the same compound, the GI50 [58] was 3.91 µM, the TGI [58] was 17.2 µM and the GI50 [13] was 10.2 µM. The TGI [13] was 23.4 µM, the GI50 [14] was 1.81 µM and the TGI [14] was 11 µM. It also gave a GI50 [15] of 7.26 µM, a TGI [15] of 32.7 µM and a GI50 [16] of 3.7 µM. The TGI [16] was 13.4 µM, the GI50 [17] was 5.44 µM and the TGI [17] was 24.6 µM. The GI50 [18] was 2.89 µM, the TGI [18] was 12.9 µM and the GI50 [19] was 5.46 µM. It also gave a TGI [19] of 19.7 µM, a GI50 [20] of 7.12 µM and a TGI [20] of 28.7 µM. For the same compound, the GI50 [21] was 13.3 µM, the TGI [21] was 30.8 µM and the GI50 [22] was 3.8 µM. It also gave a TGI [22] of 17.7 µM, a GI50 [23] of 3.14 µM and a TGI [23] of 15.7 µM. The GI50 [24] was 3.28 µM, the TGI [24] was 14.1 µM and the GI50 [25] was 5.72 µM. For the same compound, the TGI [25] was 20 µM, the GI50 [26] was 4.89 µM and the TGI [26] was 19.8 µM. It also gave a GI50 [27] of 11.8 µM, a TGI [27] of 35.2 µM and a GI50 [28] of 4.96 µM. For the same compound, the TGI [28] was 21.9 µM, the GI50 [29] was 3.84 µM and the TGI [29] was 15.8 µM. It also gave a GI50 [30] of 8.45 µM, a TGI [30] of 24.7 µM and a GI50 [31] of 6.38 µM. The TGI [31] was 38 µM, the GI50 [32] was 8.65 µM and the TGI [32] was 21.7 µM. It also gave a GI50 [33] of 4.42 µM, a TGI [33] of 37.6 µM and a GI50 [34] of 12.4 µM. For the same compound, the TGI [34] was 29.9 µM, the GI50 [35] was 3.9 µM and the TGI [35] was 18.2 µM. The GI50 [36] was 4.34 µM, the TGI [36] was 18.7 µM and the GI50 [37] was 2.03 µM. The TGI [37] was 7.97 µM, the GI50 [39] was 11.3 µM and the TGI [39] was 28.6 µM. For the same compound, the GI50 [40] was 6.57 µM, the TGI [40] was 27.1 µM and the GI50 [41] was 10.8 µM. The TGI [41] was 24.7 µM, the GI50 [42] was 11 µM and the TGI [42] was 25.4 µM. For the same compound, the GI50 [43] was 7.21 µM, the TGI [43] was 20.6 µM and the GI50 [44] was 2.73 µM. The TGI [44] was 10.1 µM, the GI50 [45] was 10.6 µM and the TGI [45] was 22.5 µM. For the same compound, the GI50 [46] was 6.12 µM, the TGI [46] was 23 µM and the GI50 [47] was 11.1 µM. The TGI [47] was 26.8 µM, the GI50 [48] was 0.799 µM and the TGI [48] was 13 µM. It also gave a GI50 [49] of 3.28 µM, a TGI [49] of 10.1 µM and a GI50 [50] of 6.62 µM. The TGI [50] was 23.7 µM, the GI50 [51] was 3.71 µM and the TGI [51] was 18.5 µM. The GI50 [52] was 8.29 µM, the TGI [52] was 21.4 µM and the GI50 [53] was 3.32 µM. It also gave a TGI [53] of 8.34 µM, a GI50 [54] of 3.95 µM and a TGI [54] of 15.5 µM. It also gave a GI50 [55] of 5.61 µM, a TGI [55] of 20.2 µM and a GI50 [56] of 3.26 µM. It also gave a TGI [56] of 19.3 µM.
